This note sets out measurements from patent US9610281B2 (priority 2012, dated 2017).

As usually defined, the EC50 is the concentration that produces a half-maximal response. For orientation: IC50 means the concentration at which inhibition is half-maximal.

The subject of assay [1] is CD-1 mice. In words: Thermal radiation tail-flick experiment I in mice (analgesic effect). The class given is in vivo. The following applies: for Tail-flick threshold: injected into abdominal cavity, 30 min after dosing, cut-off 22 sec. How it is done:
Thermal Radiation Tail-flick Experiment I in Mice (Tail-flick assay): to Evaluate the Analgesic Effect In Vivo of the Compounds of the Present Invention.
Select CD-1 mice (with the original weight being 30-40 g) and divide them into 6 groups (solvent group, morphine group, 1-THP group and DHCB groups with different doses: 5, 10, and 40 mg/kg), each including 9-11 mice. Place mice tails on the thermal radiation tail-flick apparatus and direct the light beam at ⅓ of the mice tails. First determine the basic pain thresholds of each group of mice, then inject the test samples into the abdominal cavities of the mice respectively, and after 30 min, re-determine the mice's pain thresholds. The irradiation time was no more than 22 sec. See Table 2 for the determination results.

For the next assay, the target named is T1, dopamine D2 receptor (Homo sapiens, UniProt P14416).
T1 construct: expressed in transfected cells; host or cells: HEK293T (transiently transfected)
T1 sequence (P14416 whole entry, species assumed): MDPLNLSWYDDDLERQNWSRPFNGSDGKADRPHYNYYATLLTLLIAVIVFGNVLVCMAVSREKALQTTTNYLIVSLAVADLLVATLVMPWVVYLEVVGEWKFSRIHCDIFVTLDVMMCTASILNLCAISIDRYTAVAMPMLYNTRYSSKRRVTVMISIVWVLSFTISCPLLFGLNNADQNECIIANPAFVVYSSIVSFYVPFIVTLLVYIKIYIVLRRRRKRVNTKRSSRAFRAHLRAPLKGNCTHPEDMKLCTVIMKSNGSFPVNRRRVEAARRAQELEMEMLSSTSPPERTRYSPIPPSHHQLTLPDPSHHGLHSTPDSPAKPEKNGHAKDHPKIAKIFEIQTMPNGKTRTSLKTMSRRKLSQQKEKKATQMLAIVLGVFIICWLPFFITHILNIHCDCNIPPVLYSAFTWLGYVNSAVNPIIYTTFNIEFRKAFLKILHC
In words: FLIPR Ca2+ assay, antagonist of dopamine D2 receptor in transiently transfected HEK293T cells. The class given is cell-based. The conditions noted are these: for antagonist effect on dopamine D2 receptor: intracellular Ca2+, vs DMSO blank. The procedure:
(§1) Experimental scheme: the cells used to express μ opioid receptors in this research are stably transfected human embryonic kidney 293T cells (HEK293T); the dopamine receptor applied is transiently transfected HEK293T. In this scheme, part of the berberine derivatives obtained in the present invention were added to the cells that have expressed with corresponding receptors, and FLIPR (Fluorometric Imaging Plate Reader; Molecular Devices Corp) was applied to screen and identify their functions. Specifically: inoculate cells to a 96-well cell culture plate coated with poly-D-lysme based on 80,000 per well, after 24 hours, remove the medium, add 100 μl fluorescent dye solution (2 μM Fluo-4 AM dissolves first in pluronic acid and then in the buffer composed of haploid Hank's buffer and 20 mM HEPES, with pH 7.4) to each well and keep it at 37° C. for 1 hour, then wash the cells with the buffer three times. Dissolve the compounds to be tested with DMSO and put them in a 96-well plate, apply FLIPR to automatically add samples to the cell culture plate and incubate for 3 min (for the tests of agonist of μ-opioid receptor) or 10 min (for the tests of antagonist of dopamine receptor). Then perform fluorescence detection under the wavelength of 520 nm and 488 nm, thus monitoring the concentration of Ca^2+ in the cells.
(§2) The experimental scheme is the same as that in example 1, except that when adding, dilute the compounds to be tested with buffer to different concentrations, so as to detect responses under different doses. This method has been used to test DHCB effect on μ-opioid receptors and 5 dopamine receptors, with the results as shown in FIG. 3 and Table 1. […] In addition, μ-opioid receptor's weak synergism can further enhance the analgesic effect of DHCB.

Another assay deals with T2, μ opioid receptor (Homo sapiens, UniProt P35372).
T2 construct: expressed in transfected cells; host or cells: HEK293T (stably transfected)
T2 sequence (P35372 whole entry, species assumed): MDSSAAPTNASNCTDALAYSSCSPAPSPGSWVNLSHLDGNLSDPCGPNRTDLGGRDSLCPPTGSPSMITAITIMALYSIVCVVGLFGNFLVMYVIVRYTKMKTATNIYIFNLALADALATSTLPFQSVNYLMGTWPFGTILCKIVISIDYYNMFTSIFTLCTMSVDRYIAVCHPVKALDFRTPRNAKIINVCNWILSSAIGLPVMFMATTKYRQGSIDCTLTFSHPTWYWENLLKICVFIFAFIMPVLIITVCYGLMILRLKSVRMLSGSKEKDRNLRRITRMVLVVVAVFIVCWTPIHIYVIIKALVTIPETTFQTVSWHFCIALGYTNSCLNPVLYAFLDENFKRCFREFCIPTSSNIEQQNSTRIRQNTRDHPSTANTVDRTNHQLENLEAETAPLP
In words: FLIPR Ca2+ assay, agonist of μ opioid receptor in stably transfected HEK293T cells. The following applies: for agonist effect on μ opioid receptor: intracellular Ca2+, vs DMSO blank. The class given is cell-based. The procedure:
as §1, §2

In another assay the target is T3, Dopamine D1 (Homo sapiens, UniProt P21728).
T3 construct: expressed in transfected cells; host or cells: HEK293T (transiently transfected)
T3 sequence (P21728 whole entry): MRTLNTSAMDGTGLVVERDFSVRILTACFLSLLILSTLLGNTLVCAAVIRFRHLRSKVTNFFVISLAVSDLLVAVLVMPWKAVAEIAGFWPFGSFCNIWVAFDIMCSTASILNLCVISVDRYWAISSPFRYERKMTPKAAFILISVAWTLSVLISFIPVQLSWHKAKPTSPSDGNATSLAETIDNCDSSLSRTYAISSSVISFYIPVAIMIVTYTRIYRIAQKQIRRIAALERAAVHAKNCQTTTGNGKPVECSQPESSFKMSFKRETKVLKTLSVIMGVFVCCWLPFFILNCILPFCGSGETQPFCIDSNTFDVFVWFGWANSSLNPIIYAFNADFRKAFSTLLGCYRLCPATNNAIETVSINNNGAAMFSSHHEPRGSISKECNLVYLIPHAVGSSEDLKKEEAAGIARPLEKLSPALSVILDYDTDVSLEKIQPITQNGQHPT
The assay is described as follows: FLIPR Ca2+ assay, antagonist of dopamine D1 receptor in transiently transfected HEK293T cells. The class given is cell-based. How it is done: as §1, with “cells. […]” for “cells.”

The next assay has as its target T4, Dopamine D3 (Homo sapiens, UniProt P35462).
T4 construct: expressed in transfected cells; host or cells: HEK293T (transiently transfected)
In words: FLIPR Ca2+ assay, antagonist of dopamine D3 receptor in transiently transfected HEK293T cells. The class given is cell-based. The procedure:
as §1, with “cells. […]” for “cells.”

In a further assay the target is T5, Dopamine D4 (Homo sapiens, UniProt P21917).
T5 construct: expressed in transfected cells; host or cells: HEK293T (transiently transfected)
T5 sequence (P21917 1-419): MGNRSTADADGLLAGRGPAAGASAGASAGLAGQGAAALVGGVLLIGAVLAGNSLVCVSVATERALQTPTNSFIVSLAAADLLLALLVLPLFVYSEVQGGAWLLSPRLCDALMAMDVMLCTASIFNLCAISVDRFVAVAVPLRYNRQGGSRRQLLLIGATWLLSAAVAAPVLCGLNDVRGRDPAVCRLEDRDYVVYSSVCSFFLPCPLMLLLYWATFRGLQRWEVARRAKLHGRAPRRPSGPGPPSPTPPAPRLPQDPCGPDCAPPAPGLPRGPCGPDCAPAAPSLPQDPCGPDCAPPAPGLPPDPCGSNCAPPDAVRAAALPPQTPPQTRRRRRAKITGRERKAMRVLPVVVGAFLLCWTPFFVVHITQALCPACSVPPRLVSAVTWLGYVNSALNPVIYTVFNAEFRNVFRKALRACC
The assay is described as follows: FLIPR Ca2+ assay, antagonist of dopamine D4 receptor in transiently transfected HEK293T cells. The class given is cell-based. The procedure: as §1, with “cells. […]” for “cells.”

Another assay deals with T6, Dopamine D5 (Homo sapiens, UniProt P21918).
T6 construct: expressed in transfected cells; host or cells: HEK293T (transiently transfected)
T6 sequence (P21918 whole entry): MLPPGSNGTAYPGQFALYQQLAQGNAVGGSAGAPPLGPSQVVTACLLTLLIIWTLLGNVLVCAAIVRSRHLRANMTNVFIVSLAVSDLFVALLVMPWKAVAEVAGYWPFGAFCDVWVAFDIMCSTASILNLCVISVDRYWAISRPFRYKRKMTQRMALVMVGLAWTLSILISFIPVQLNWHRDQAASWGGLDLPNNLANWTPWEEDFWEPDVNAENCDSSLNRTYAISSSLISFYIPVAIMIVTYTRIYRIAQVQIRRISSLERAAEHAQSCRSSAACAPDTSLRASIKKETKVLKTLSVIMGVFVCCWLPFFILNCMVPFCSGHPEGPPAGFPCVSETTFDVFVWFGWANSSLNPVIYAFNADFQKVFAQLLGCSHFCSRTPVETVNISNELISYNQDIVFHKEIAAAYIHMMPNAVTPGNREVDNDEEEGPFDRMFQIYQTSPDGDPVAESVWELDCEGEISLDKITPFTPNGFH
The assay is described as follows: FLIPR Ca2+ assay, antagonist of dopamine D5 receptor in transiently transfected HEK293T cells. The class given is cell-based. How it is done: as §1, with “cells. […]” for “cells.”

Assay [2] relates to CD-1 mice. In words: Thermal radiation tail-flick experiment II in mice (duration time of analgesic effect). The class given is in vivo. The conditions noted are these: pain thresholds within 6 hours; DHCB 20 and 40 mg/kg. The procedure:
Thermal Radiation Tail-flick Experiment II in Mice (Tail-flick Assay): to Evaluate the Duration Time of the Analgesic Effect In Vivo of the Compounds of the Present Invention.
Select CD-1 mice (with the original weight being 30-40 g) and divide them into […] (solvent group, morphine group, and DHCB groups with different doses: 10, 20 and 40 mg/kg), each including 9-11 mice. Place mice tails on the thermal radiation tail-flick apparatus and direct the light beam at ⅓ of the mice tails. First determine the basic pain thresholds of each group of mice, then inject the test samples into the abdominal cavities of the mice respectively, and determine the mice's pain thresholds within 6 hours according to time points. The irradiation time was no more than 22 sec.

Assay [3] concerns CD-1 mice. The assay is described as follows: Formalin pain experiment in mice. The class given is in vivo. The following applies: 5% formalin 15 min after drug. How it is done:
Activity Example 5: to Evaluate the Analgesic Effect In Vivo of the Compounds of the Present Invention Through Formalin Pain Experiment in Mice.
Select CD-1 mice (with the original weight being 30-40 g) and divide them into 4 groups (solvent group, morphine group, and DHCB groups with different doses: 5 and 10 mg/kg), each including 9-11 mice. Place hind paws of the mice that are marked with formalin injection into the cages for 15-30 min. Inject drugs of corresponding doses into each mouse, and after 15 min, infuse 5% formalin solution subcutaneously into the underside of marked paw feet. The mice soon began to lick or bite their injected feet. Keep observation for 50 min, and record mice feet-licking time within phase I (0-5 min) and phase II (10-50 min).

Another assay deals with mice. In words: Drug resistance experiment (mice tail-flick under thermal radiation, 7 days). The class given is in vivo. The conditions noted are these: successive 7 days, DHCB 10 mg/kg into abdominal cavity, thresholds every other day. The procedure:
Drug resistance is a defect existing in many commonly used analgesics, which constitutes great limitations on their use. This experiment studies the drug resistance of DHCB through mice tail-flick under thermal radiation. During the experiment, DHCB (10 mg/kg) had been injected into the abdominal cavity of the mice for successive 7 days and the mice's pain thresholds had been detected every other day.

T4 sequence (P35462 whole entry): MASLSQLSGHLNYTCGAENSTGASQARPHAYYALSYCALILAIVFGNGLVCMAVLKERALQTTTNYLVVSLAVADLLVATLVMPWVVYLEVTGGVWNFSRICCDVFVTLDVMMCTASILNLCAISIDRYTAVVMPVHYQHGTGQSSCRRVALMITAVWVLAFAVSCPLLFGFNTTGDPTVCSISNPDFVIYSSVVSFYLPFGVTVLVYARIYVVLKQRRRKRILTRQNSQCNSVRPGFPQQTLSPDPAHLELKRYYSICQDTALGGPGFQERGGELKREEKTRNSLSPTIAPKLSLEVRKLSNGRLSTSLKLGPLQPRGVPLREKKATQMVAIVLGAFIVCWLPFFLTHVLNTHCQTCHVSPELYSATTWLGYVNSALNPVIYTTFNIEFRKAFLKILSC

With `COc1cc2c(cc1OC)[C@@H]1Cc3ccc(OC)c(OC)c3CN1CC2` [Compound 1-THP, L-tetrahydropalmatine, reference compound], the Tail-flick threshold in the assay with CD-1 mice [1] (10 mg/kg) is 10 s.
As to `COc1cc2c(cc1O)-c1c(C)c3ccc(OC)c(OC)c3c[n+]1CC2` [Compound 10], the “antagonist effect on dopamine D2 receptor” value (“antagonist effect” below) on dopamine D2 receptor (FLIPR, HEK293T) is reported as “good antagonist”.
Take `COc1cc2c(cc1O)CC[n+]1cc3c(OC)c(OC)ccc3c(C)c1-2` [Compound 12, dehydrocorybulbine]: the EC50 at μ opioid receptor (dose-effect curve) came to 100000 nM. The “agonist effect on μ opioid receptor” value on μ opioid receptor is listed as “a certain agonist”; at μ opioid receptor (listed as DHCB) it was “weak agonist”. In addition, the “antagonist activity on D2 compared with THP” value at dopamine D2 receptor (FLIPR screen, THP positive control) is recorded as “equivalent to that of THP”. In addition, the “antagonist effect” value on dopamine D2 receptor (FLIPR, HEK293T) is listed as “good antagonist”; on dopamine D2 receptor (FLIPR, HEK293T, listed as DHCB), “antagonist”. For the same compound, the IC50 at dopamine D2 receptor (dose-effect curve, FLIPR, HEK293T) is 520 nM; at Dopamine D1 (dose-effect curve, HEK293T), 2160 nM; on Dopamine D3 (dose-effect curve, HEK293T), 2400 nM; at Dopamine D4 (dose-effect curve, HEK293T), 8400 nM; on Dopamine D5 (dose-effect curve, HEK293T), 730 nM. Further, the “effect on dopamine D1 receptor” value at Dopamine D1 (dose-effect) was “antagonist”. At Dopamine D3 (dose-effect), the “effect on dopamine D3 receptor” value is given as “antagonist”. The “effect on dopamine D4 receptor” value at Dopamine D4 (dose-effect) was “antagonist”. In addition, on Dopamine D5 (dose-effect), the “effect on dopamine D5 receptor” value is “antagonist”. Also, the Tail-flick threshold with CD-1 mice [1] (5 mg/kg) came to 9 s; in the assay on CD-1 mice [1] (10 mg/kg), 12 s; with CD-1 mice [1] (40 mg/kg), 17 s. In the assay with CD-1 mice [1] (doses of 5, 10, and 40 mg/kg), the “analgesic effect in tail-flick” value is on record as “significant dose-dependent analgesic effect”. Moreover, in the assay with CD-1 mice [1] (high dose 40 mg/kg), the “analgesic effect on heat stimulation compared with morphine” value was “close to that of small-dose morphine”. The “analgesic effect in tail-flick compared with controls” value in the assay with CD-1 mice [1] (low dose 10 mg/kg) is listed as “superior to that of THP”. Moreover, the “duration of analgesic effect in tail-flick” value in the assay on CD-1 mice [2] is recorded as “does not exhibit conspicuous attenuation until four hours have passed”. Besides, the “analgesic effect within phase I (0-5 min), feet-licking time” value with CD-1 mice [3] (5 mg/kg and 10 mg/kg) is “substantial analgesic effect”. For the same compound, the “analgesic effect within phase II (10-50 min), feet-licking time” value in the assay with CD-1 mice [3] (10 mg/kg) is on record as “significant analgesic effect”. In addition, the “analgesic effect on repeated dosing (drug resistance)” value in the assay on mice was “unchanged analgesic effect”.
For the compound `COc1cc2c(cc1O)-c1c(C)c3ccc(OC)c(O)c3c[n+]1CC2` [Compound 14], the “antagonist effect” value at dopamine D2 receptor (FLIPR, HEK293T) is reported as “good antagonist”.
As to `COc1cc2c(cc1O)CC[n+]1cc3c(O)c(OC)ccc3c(C)c1-2` [Compound 16], at μ opioid receptor, the “agonist effect on μ opioid receptor” value is “a certain agonist”. For the same compound, the “antagonist effect” value at dopamine D2 receptor (FLIPR, HEK293T) is “good antagonist”.
For the compound `CN1CC[C@]23c4c5ccc(O)c4O[C@H]2[C@@H](O)C=C[C@H]3[C@H]1C5` [morphine, reference compound], the Tail-flick threshold with CD-1 mice [1] (10 mg/kg) is on record as 20 s. The “duration of analgesic effect in tail-flick” value in the assay with CD-1 mice [2] is given as “weakens quickly two hours later”. Further, the “analgesic effect on repeated dosing (drug resistance)” value in the assay on mice is recorded as “began to reduce obviously from the third day”.
